Measured values published in patent US5684151A, “1-arylsulphonyl, arylcarbonyl and 1-arylphosphonyl-3-phenyl-1,4,5,6-tetrahydropyridazines” (priority 1995, dated 1997).
Where two headings read alike, the source gives them in different places.

Tests used:
[1] = target: T1, progestin receptor from rabbit uterus (Oryctolagus cuniculus, UniProt P06186); test: Progestin receptor binding (3H-R5020 displacement); details: rabbit uterine cytosol, 4° C., 18 h, read-out: IC50: Binding affinity for the progestin receptor from rabbit uterus
T1 construct: Cytosolic progestin receptor were obtained by mixing rabbit uterine tissue with a Tris buffer; from tissue; host or cells: rabbit uterus cytosol
Outline: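 Displacement of the radioligand 3H-R5020 was measured in cytosol from homogenized rabbit uterus (pH 7.4 Tris/EDTA/DTT/molybdate buffer), with compounds at 5% final DMSO and about 18 h at 4 °C. Charcoal removed free ligand, scintillation counting quantified bound ligand, and IC50 was the concentration displacing half.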

[2] = system: Human T47D breast carcinoma cells; test: Ex vivo progestational test (T47D proliferation); format: cell-based; details: SC200, 3H-thymidine incorporation
Description: The progestational activity of the compounds was accessed by their ability to stimulate proliferation of human breast carcinoma cells. Proliferation was measured as the ability to stimulate ^3 H-thymidine incorporation into these cells in vitro. Human T47D breast carcinoma cells (American Type Tissue Collection #133-HTB) were maintained in media consisting or RPMI 1640 supplemented with 10% fetal bovine serum, 10 ug/ml insulin, 10 U/ml pennicillin, 100 ug/ml streptomycin, and 2 mM L-glutamine. Monolayer cell cultures were trypsinized and washed in assay media consisting of phenol red-free RPMI 1640 supplemented with 5% charcoal-stripped, fetal bovine serum, and the other ingredients listed above. Cells were then plated in a 96-well plate. After a 48-hour incubation period at 37° C., the conditioned media was removed and replaced with fresh media containing test compounds in DMSO (0.1% DMSO final concentration). The cell cultures were incubated for 18 to 20 hours at 37° C. ^3 H-thymidine was then added to each well and the cell cultures were incubated at 37° C. for an additional 4 hours. Labelling was stopped by addition of un labelled thymidine. The cultures were washed twice, trypsinized and then harvested onto a filter mat. Incorporated ^3 -H-thymidine was measured by liquid scintillation counting. Data was expressed as a percent stimulation above control level which was set at 100%. An SC200 value was calculated as the concentration of test material needed to stimulate ^3 H-thymidine incorporation 200% of control.
Aspects of the application of the procedure used are described in the following: C. Christensen, D. Gunter, D. Saunders and V. Malviya, Gynecol. Oncol., 28, 25 (1987); J. Puzas, R. Drivdahl, G. Howard and D. Baylink, Proc. Soc. Exp. Biol. Med., 166, 113 (1981); and I. Keydar, L. Chen, S. Karby, F. Weiss, J. Delarea, M. Raduy, S. Chaitcik and H. Brenner, Eur. J. Cancer, 15, 659 (1979)

[3] = system: mouse (MC3T3-E1) and human (TE-85) osteoblast-line cells; format: cell-based
Outline: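 Proliferation was read as ^3H-thymidine (0.4 μCi) uptake during a 4 h pulse, which started 20 h after compound addition. Before dosing, cells sat 24 h in 0.1% FBS. Values are % times control (100%).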

rabbit endometrium [4] = test: In vivo progestational test (Clauberg Test); parameters: species or system rabbit (immature New Zealand White female); key: Active in Clauberg Assay; Active in McGinty Assay; details: oral or parenteral, daily for five days
Description: Progestational activity was also measured in vivo by the abiity to stimulate the rabbit endometrium after either oral or parenteral administration.
[…]. Starting on the 7th day, the rabbits were given the test material daily for five days. The rabbits were sacrificed approximately 24 hours after the last administration, and the uteri were excised, trimmed and weighed. Portions of both uterine horns were fixed in 10% neutral formalin, sectioned at 6μ and stained with hematoxylin and eosin. Progestational activity was assessed as described above for the McGinty Test.

rabbit endometrium [5] = test: In vivo progestational test (McGinty Test); parameters: species or system rabbit (immature New Zealand White female); key: Active in Clauberg Assay; Active in McGinty Assay; details: injection into uterine horn, 72 hours
Description: Progestational activity was measured in vivo by the ability to stimulate the rabbit endometrium after injection into the uterine horn.
Immature New Zealand White female rabbits were injected subcutaneously for 6 days with 5.0 μg of 17β-estradiol per day. On the 7th day the rabbits were anesthetized, the abdomen opened and a uterine horn exposed. Two ligatures were placed around a segment of the uterus 3-4 cm long, leaving the major blood vessels outside the ties.
The upper ligature was tied tightly, and the lower one was left loose. A needle attached to a syringe was injected in the uterus below the second ligature and up into the area between the two ligatures. As the test material was injected, the ligature was tightened and held tight so that the needle was withdrawn without the loss of fluid. The second ligature was secured and the abdomen closed.
The rabbits were sacrificed approximately 72 hours after the injection. The uteri were removed, fixed in 10% buffered formalin, sectioned at 6μ, and stained with hematoxylin and eosin. The evaluation for endometrial proliferation was made according to a McPhail Index. Each slide was graded for each rabbit on a 0 (no response)-4 (maximum response) scale.

T1 sequence (P06186 whole entry): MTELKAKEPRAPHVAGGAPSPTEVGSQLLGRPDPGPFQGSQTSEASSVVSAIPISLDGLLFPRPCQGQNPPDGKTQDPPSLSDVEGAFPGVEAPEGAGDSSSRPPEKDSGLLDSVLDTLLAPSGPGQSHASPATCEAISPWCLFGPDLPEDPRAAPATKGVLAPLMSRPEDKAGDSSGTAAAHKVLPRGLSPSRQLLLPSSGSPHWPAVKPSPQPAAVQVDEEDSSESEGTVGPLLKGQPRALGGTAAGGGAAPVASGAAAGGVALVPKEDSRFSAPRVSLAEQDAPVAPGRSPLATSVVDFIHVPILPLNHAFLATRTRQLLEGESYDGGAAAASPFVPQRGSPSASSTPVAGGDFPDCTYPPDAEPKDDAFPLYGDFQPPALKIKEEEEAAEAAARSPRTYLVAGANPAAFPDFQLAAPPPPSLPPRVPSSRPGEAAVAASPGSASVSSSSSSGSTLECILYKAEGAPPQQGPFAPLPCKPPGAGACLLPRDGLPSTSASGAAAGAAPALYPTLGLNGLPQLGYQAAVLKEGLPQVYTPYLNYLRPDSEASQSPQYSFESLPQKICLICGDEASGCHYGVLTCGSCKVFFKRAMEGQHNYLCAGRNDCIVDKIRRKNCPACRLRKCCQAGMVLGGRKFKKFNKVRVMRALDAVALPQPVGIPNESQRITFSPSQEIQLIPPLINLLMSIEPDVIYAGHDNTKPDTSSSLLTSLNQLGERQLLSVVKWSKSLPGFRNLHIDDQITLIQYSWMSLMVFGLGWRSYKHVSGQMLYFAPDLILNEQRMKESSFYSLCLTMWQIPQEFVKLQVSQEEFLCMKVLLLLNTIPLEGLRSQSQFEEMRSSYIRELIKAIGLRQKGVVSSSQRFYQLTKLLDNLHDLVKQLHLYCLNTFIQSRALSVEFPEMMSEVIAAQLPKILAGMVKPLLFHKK

Compound: O=C(c1cc(Cl)cc(Cl)c1)N1CCCC(c2ccc(Cl)c(Cl)c2)=N1 [Compound 219]
- IC50 [1]: 946 nM
- T47D: Concentration to elicit a 200% increase in T47D Human breast cell proliferation [2]: 10000
- Osteoblast Cell Proliferation, 3H-thymidine incorporation vs control (100%) ([3]; 10^-6): 144%
- Osteoblast Cell Proliferation, 3H-thymidine incorporation vs control (100%) ([3]; 10^-7): 171%
- Osteoblast Cell Proliferation, 3H-thymidine incorporation vs control (100%) ([3]; 10^-8): 141%
- Osteoblast Cell Proliferation, 3H-thymidine incorporation vs control (100%) ([3]; 10^-9): 180%
- Osteoblast Cell Proliferation, 3H-thymidine incorporation vs control (100%) ([3]; 10^-10): 178%

Compound: CC1CCC(c2ccc(Cl)c(Cl)c2)=NN1S(=O)(=O)c1ccc(I)cc1 (stereo not shown) [Compound 282, 1-(4Iodobenzenesulfonyl)-3-(3,4-dichlorophenyl)-6-methyl 1,4,5,6-tetrahydropyridazine]
- IC50 [1]: 0.2 nM
- T47D: Concentration to elicit a 200% increase in T47D Human breast cell proliferation [2]: 10.5
- In-vivo: Active in Clauberg Assay (rabbit endometrium [4]): C

Compound: O=S(=O)(c1ccc(I)cc1)N1CCCC(c2cc(Br)c(Br)s2)=N1 [Compound 278, 3-(4,5-Dibromo-2-thienyl)-1-(4-iodobenzenesulfonyl)-1,4,5,6-tetrahydropyridazine]
- IC50 [1]: 1 nM
- T47D: Concentration to elicit a 200% increase in T47D Human breast cell proliferation [2]: 85
- In-vivo: Active in Clauberg Assay (rabbit endometrium [4]): C

Compound: O=S(=O)(c1cccc(C(F)(F)F)c1)N1CCCC(c2ccc(Cl)cc2)=N1 [Compound 35]
- IC50 [1]: 3.01 nM
- Osteoblast Cell Proliferation, 3H-thymidine incorporation vs control (100%) ([3]; 10^-6): 82%
- Osteoblast Cell Proliferation, 3H-thymidine incorporation vs control (100%) ([3]; 10^-7): 101%
- Osteoblast Cell Proliferation, 3H-thymidine incorporation vs control (100%) ([3]; 10^-8): 123%
- Osteoblast Cell Proliferation, 3H-thymidine incorporation vs control (100%) ([3]; 10^-9): 150%
- Osteoblast Cell Proliferation, 3H-thymidine incorporation vs control (100%) ([3]; 10^-10): 154%
- In-vivo: Active in McGinty Assay (rabbit endometrium [5]): M

Compound: O=S(=O)(c1ccc(Br)cc1)N1CCCC(c2ccc(Cl)c(C(F)(F)F)c2)=N1 [Compound 115, 3-(4-chloro-3-trifluoromethylphenyl)-1-(4-bromobenzenesulphonyl)-1,4,5,6-tetrahydropyridazine]
- IC50 [1]: 2.09 nM
- T47D: Concentration to elicit a 200% increase in T47D Human breast cell proliferation [2]: 72
- In-vivo: Active in Clauberg Assay (rabbit endometrium [4]): C

Compound: O=S(=O)(/C=C/c1ccc(Cl)cc1)N1CCCC(c2ccc(Cl)c(Cl)c2)=N1 [Compound 170]
- IC50 [1]: 2.15 nM
- T47D: Concentration to elicit a 200% increase in T47D Human breast cell proliferation [2]: 4000
- Osteoblast Cell Proliferation, 3H-thymidine incorporation vs control (100%) ([3]; 10^-6): 68%
- Osteoblast Cell Proliferation, 3H-thymidine incorporation vs control (100%) ([3]; 10^-7): 98%
- Osteoblast Cell Proliferation, 3H-thymidine incorporation vs control (100%) ([3]; 10^-8): 108%
- Osteoblast Cell Proliferation, 3H-thymidine incorporation vs control (100%) ([3]; 10^-9): 108%
- Osteoblast Cell Proliferation, 3H-thymidine incorporation vs control (100%) ([3]; 10^-10): 108%

Compound: O=S(=O)(c1ccc(C(F)(F)F)cc1)N1CCCC(c2ccc(Cl)c(Cl)c2)=N1 [Compound 97, 3-(3,4-dichlorophenyl)-1-(4-trifluoromethylbenzenesulphonyl)-1,4,5,6-tetrahydropyridazine]
- IC50 [1]: 0.99 nM
- T47D: Concentration to elicit a 200% increase in T47D Human breast cell proliferation [2]: 92
- In-vivo: Active in Clauberg Assay (rabbit endometrium [4]): C

Compound: O=S(=O)(c1ccc(C(F)(F)F)cc1)N1CCCC(c2ccc(Cl)c(C(F)(F)F)c2)=N1 [Compound 125, 3-(4-chloro-3-trifluoromethylphenyl)-1-(4-trifluoromethylbenzenesulphonyl)-1,4,5,6-tetrahydropyridazine]
- IC50 [1]: 6.66 nM
- T47D: Concentration to elicit a 200% increase in T47D Human breast cell proliferation [2]: 166
- In-vivo: Active in Clauberg Assay (rabbit endometrium [4]): C

Compound: O=S(=O)(c1ccc(I)cc1)N1CCCC(c2ccc3ccccc3c2)=N1 [Compound 119, 3-(naphth-2-yl)-1-(4-iodobenzenesulphonyl)-1,4,5,6-tetrahydropyridazine]
- IC50 [1]: 2.53 nM
- T47D: Concentration to elicit a 200% increase in T47D Human breast cell proliferation [2]: 868

Compound: O=S(=O)(c1cc(Cl)ccc1Cl)N1CCCC(c2ccc(Cl)c(Cl)c2)=N1 [Compound 22, 3-(3,4-dichlorophenyl)-1-(2,5-dichlorobenzenesulphonyl)-1,4,5,6-tetrahydropyridazine]
- IC50 [1]: 0.54 nM
- T47D: Concentration to elicit a 200% increase in T47D Human breast cell proliferation [2]: 10000
- Osteoblast Cell Proliferation, 3H-thymidine incorporation vs control (100%) ([3]; 10^-6): 86%
- Osteoblast Cell Proliferation, 3H-thymidine incorporation vs control (100%) ([3]; 10^-7): 78%
- Osteoblast Cell Proliferation, 3H-thymidine incorporation vs control (100%) ([3]; 10^-8): 66%
- Osteoblast Cell Proliferation, 3H-thymidine incorporation vs control (100%) ([3]; 10^-9): 59%
- Osteoblast Cell Proliferation, 3H-thymidine incorporation vs control (100%) ([3]; 10^-10): 40%

Compound: CCCCc1ccc(C2=NN(S(=O)(=O)c3ccc(C)cc3)CCC2)cc1 [Compound 74]
- IC50 [1]: 10000 nM
- T47D: Concentration to elicit a 200% increase in T47D Human breast cell proliferation [2]: 10000

Compound: CC1CCC(c2ccc(Cl)c(C(F)(F)F)c2)=NN1S(=O)(=O)c1ccc(I)cc1 (stereo not shown) [Compound 281, 1-(4-Iodobenzenesulfonyl)-3-(3-trifluoromethyl-4-chlorophenyl)-6-methyl-1,4,5,6-tetrahydropyridazine]
- IC50 [1]: 0.02 nM
- T47D: Concentration to elicit a 200% increase in T47D Human breast cell proliferation [2]: 10
- In-vivo: Active in Clauberg Assay (rabbit endometrium [4]): C

Compound: O=[N+]([O-])c1cc(S(=O)(=O)N2CCCC(c3ccc(Cl)c(Cl)c3)=N2)ccc1Cl [Compound 111]
- IC50 [1]: 16 nM
- T47D: Concentration to elicit a 200% increase in T47D Human breast cell proliferation [2]: 10000

Compound: O=S(=O)(c1cccc(Cl)c1)N1CCCC(c2ccc(Cl)c(Cl)c2)=N1 [Compound 109]
- IC50 [1]: 1.09 nM
- T47D: Concentration to elicit a 200% increase in T47D Human breast cell proliferation [2]: 1620

Compound: O=S(=O)(/C=C/c1ccccc1)N1CCCC(c2ccc3ccccc3c2)=N1 [Compound 174]
- IC50 [1]: 22.8 nM
- T47D: Concentration to elicit a 200% increase in T47D Human breast cell proliferation [2]: 10000

Compound: O=S(=O)(c1cccc(Cl)c1Cl)N1CCCC(c2ccc(Cl)c(Cl)c2)=N1 [Compound 105, 3-(3,4-dichlorophenyl)-1-(2,3-dichlorobenzenesulphonyl)-1,4,5,6-tetrahydropyridazine]
- IC50 [1]: 1.87 nM
- T47D: Concentration to elicit a 200% increase in T47D Human breast cell proliferation [2]: 1070

Compound: O=S(=O)(/C=C/c1ccc(Cl)cc1)N1CCCC(c2ccc(Cl)c(C(F)(F)F)c2)=N1 [Compound 178]
- IC50 [1]: 5.18 nM
- T47D: Concentration to elicit a 200% increase in T47D Human breast cell proliferation [2]: 164

Compound: Cc1ccc(S(=O)(=O)N2CCCC(c3ccc4ccccc4c3)=N2)cc1 [Compound 120]
- IC50 [1]: 13.3 nM
- T47D: Concentration to elicit a 200% increase in T47D Human breast cell proliferation [2]: 831

Compound: O=S(=O)(c1cc(Cl)cc(Cl)c1)N1CCCC(c2ccc(Cl)c(Cl)c2)=N1 [Compound 104]
- IC50 [1]: 0.85 nM
- T47D: Concentration to elicit a 200% increase in T47D Human breast cell proliferation [2]: 76
